# Results: patent publication US10959433B2, “Use of cationic steroidal antimicrobials for sporicidal activity” (BRIGHAM YOUNG UNIVERSITY, priority 2017, dated 2021)
# Columns and labels:
# [1] = test system: B. subtilis spores; assay: Viability (CFU) assay of bacterial spores; format: cell-based, Bacillus subtilis ATCC 6051
# Description: (§1) This example studied the ability of a CSA compound (e.g., CSA-13) to kill sporulated bacterial, namely Bacillus subtilis ATCC 6051 spores. To prepare Bacillus subtilis ATCC 6051 spores, bacteria were grown on LB (Luria-Bertani) agar plates without antibiotics at 37° C. for 72 h. Bacteria were harvested, re-suspended in ice-cold phosphate buffered saline (PBS) solution and purified by triple centrifugation (12 000×g, 10 min, 4° C.). The spore suspension was heat treated (75° C., 15 min) to remove remaining vegetative cells, cooled, stored in water at 4° C. and protected from light until analysis. […] Zhang, P., P. Setlow, and Y. Li, Characterization of single heat-activated Bacillus spores using laser tweezers Raman spectroscopy. Opt Express, 2009. 17(19): p. 16480-91. All spores used in this work were free of vegetative cells (>98%), as determined by staining cells using Schaeffer and Fulton Spore Stain Kit (Sigma-Aldrich, St Louis, Mo., USA). Additionally, to confirm the formation of spores during preparation, purified samples were investigated using transmission electron microscopy (TEM, Tecnai G2 X-TWIN, FEI, USA).
# (§2) A viability assay of bacterial spores in the presence of a CSA compound was performed according to the protocol presented by Ghosh and Setlow. Ghosh, S. and P. Setlow, Isolation and characterization of superdormant spores of Bacillus species. J Bacteriol, 2009. 191(6): p. 1787-97. Spore suspensions in PBS were brought to […] and incubated with various concentrations of CSA-13. To evaluate the effect of treatment time on the killing properties of the antibiotic, incubation was performed for 15, 30, 60, 120 and 240 min, respectively. To investigate the effect of temperature on sporicidal properties, incubation at room temperature (RT) and at 70° C. was performed. After incubation, the plates were transferred to ice and suspensions were diluted 10- to 1000-fold in PBS. Then, 10 μL aliquots were spotted on LB agar plates for overnight culture at 37° C. and CFUs were determined. Cell survival, after exposure to the tested agent, was expressed as percent of control.
# FIG. 4 includes graphs showing decreased survival of CSA-13-treated B. subtilis spores. FIG. 4, panels A-C show decline in the survival of B. subtilis culture after incubation with various concentrations of CSA-13. FIG. 4, panels D-F show Level of metabolic activity observed in ceragenin (CSA)-treated spore samples exposed to appropriate environmental conditions when compared to untreated control. Samples were incubated at RT (panels A, D for vegetative form and panels B, E for spore form, respectively) and at 70° C. (panels C, F) for 15 (white squares), 30 (grey circles), 60 (black circles), 120 (white triangles) and 240 (grey diamonds) minutes. […]
# [2] = test system: B. subtilis spores; assay: TEM of treated spores (morphology, membrane permeability); format: cell-based, Bacillus subtilis; settings: 50 μg/mL and 200 μg/mL, 1 hour, RT and 70° C. (FIG. 3, panels C-F)
# Description: as §1
# To visualize alterations in morphology and membrane permeability of treated spores, a suspension of spores (OD600˜0.5) in distilled water was treated with CSA-13 at concentrations of 50 μg/mL and 200 μg/mL and incubated for 1 hour at RT and 70° C. […]
# [3] = test system: B. subtilis spores; assay: MTT assay of metabolic activity, spores; format: cell-based, Bacillus subtilis; settings: LB broth 37° C. 8 h after treatment at RT or 70° C. (FIG. 4, panels E, F)
# Description: As an additional confirmation of results, the presence of a metabolically active fraction of cells was investigated using MTT assay. After incubation of spores with various concentrations of CSA-13 in a non-growing medium (PBS), 20 μL of MTT solution (thiazolyl blue tetrazolium bromide, Sigma-Aldrich, St Louis, Mo., USA, 5 mg/mL) and 100 μL of LB medium broth were added. Incubation at 37° C. was continued for 8 h. Medium was removed, and 100 μL of dimethyl sulfoxide solution (DMSO) was added to dissolve the MTT precipitate. Cells were allowed to stand at room temperature (RT) for 10 min with shaking. Absorbance values were detected at a wavelength of 570 nm using a microplate spectrophotometer. Absorbance values obtained in control spores cultures (without a tested agent) were taken as 100%. As positive controls, 1 M HCl (for spore treatment at RT) and 70% ethanol (for spore treatment at 70° C.) were employed. The average of all the experiments was presented in comparison to the level of metabolic activity detected in non-treated B. subtilis suspension. […]
# The results of viability testing largely correlate with data obtained in the MTT assay. […] The incubation of non-treated spores in LB broth at 37° C. results in reactivation of metabolic activity confirmed by increasing formazan reduction and subsequent rise in an absorbance value. […]
# [4] = test system: B. subtilis spores; assay: Spore germination by optical density (OD600); format: cell-based, Bacillus subtilis; settings: 10 to 100 μg/mL, 1 h at RT in PBS, then LB broth, OD600 for 60 min (FIG. 5, panel A)
# Description: To further assess germination processes in antibiotic-treated samples, a spectrophotometric method was employed. Isolated spores were incubated at RT for 1 h in PBS with concentrations of CSA-13 ranging from 10 to 100 μg/mL. Then 100 μL of LB broth was added, and optical densities at 600 nm (OD600) were monitored, using a microplate reader (Synergy H1, BioTek, VT, USA), for 60 min. FIG. 5 includes graphs showing inhibitory effect of CSA-13 on B. subtilis spore germination assessed by the measurement of optical density for spore suspension with increasing concentrations of the antibiotic (10 μg/mL—white squares; 20 μg/mL—white diamonds; 50 μg/mL—black triangles; 100 μg/mL—black diamonds), when compared with control (CT—grey circles) (panel A). Release of rhodamine 6G from external layers of B. subtilis spores after treatment with 20 μg/ml of CSA-13 (black square) and vancomycin (VAN; grey square) (panel B).
# [5] = test system: vegetative cells of B. subtilis; assay: MTT assay of metabolic activity, vegetative cells; format: cell-based, Bacillus subtilis; settings: RT (FIG. 4, panel D)
# Description: As an additional confirmation of results, the presence of a metabolically active fraction of cells was investigated using MTT assay. After incubation of spores with various concentrations of CSA-13 in a non-growing medium (PBS), 20 μL of MTT solution (thiazolyl blue tetrazolium bromide, Sigma-Aldrich, St Louis, Mo., USA, 5 mg/mL) and 100 μL of LB medium broth were added. Incubation at 37° C. was continued for 8 h. Medium was removed, and 100 μL of dimethyl sulfoxide solution (DMSO) was added to dissolve the MTT precipitate. Cells were allowed to stand at room temperature (RT) for 10 min with shaking. Absorbance values were detected at a wavelength of 570 nm using a microplate spectrophotometer. Absorbance values obtained in control spores cultures (without a tested agent) were taken as 100%. As positive controls, 1 M HCl (for spore treatment at RT) and 70% ethanol (for spore treatment at 70° C.) were employed. The average of all the experiments was presented in comparison to the level of metabolic activity detected in non-treated B. subtilis suspension. Incubation of both vegetative cells and spores of B. subtilis was performed for 15, 30, 60, 120 and 240 min.
# [6] = test system: vegetative form of B. subtilis; assay: Viability (CFU) assay, vegetative form; format: cell-based, Bacillus subtilis ATCC 6051; settings: RT, incubation time 240 min
# Description: as §2
# FIG. 4 includes graphs showing decreased survival of CSA-13-treated B. subtilis spores. FIG. 4, panels A-C show decline in the survival of B. subtilis culture after incubation with various concentrations of CSA-13. FIG. 4, panels D-F show Level of metabolic activity observed in ceragenin (CSA)-treated spore samples exposed to appropriate environmental conditions when compared to untreated control. […]
# [7] = test system: external layers of B. subtilis spores; assay: Release of rhodamine 6G from the surface of spores; format: cell-based, Bacillus subtilis
# Description: The release of rhodamine 6G absorbed on the surface of Bacillus spores was evaluated using the Maesaki method (Maesaki, S., et al., Rhodamine 6G efflux for the detection of CDR1-overexpressing azole-resistant Candida albicans strains. J Antimicrob Chemother, 1999. 44(1): p. 27-31) with minor modifications. To stain cells with rhodamine 6G, the dye was added to a final concentration of 10 μM for 10 min. Non-absorbed dye was removed by centrifugation for 2 min at 10 000×g. Next, stained cells were washed and CSA-13 at 20 μg/mL was added. After incubation for 10, 30, 60 and 120 min, supernatant was collected by centrifugation and absorption at 527 nm was measured. The total concentration of rhodamine 6G released from the surface of spores was calculated using a standard concentration curve. The level of antibiotic-induced release was presented as the difference between the concentration of rhodamine 6G released from treated spores and control samples.
# [8] = test system: membrane of vegetative and spore form of B. subtilis; assay: Affinity of FITC-labeled CSA-13 to cell membranes (fluorimetric); format: binding, Bacillus subtilis; settings: FITC-labeled CSA-13, 20 μg/mL
# Description: To assess the affinity/binding of CSA-13 for the outer bacterial membrane, CSA-13 was labeled with fluorescein isothiocyanate (FITC) and added to the suspensions of vegetative cell and spores, to a final concentration of 20 μg/mL. […] To evaluate whether affinity of CSA-13 is influenced by the surface electrical properties of cells, zeta potentials of vegetative bacteria and spore suspensions were assessed using Zetasizer Nano ZS (Malvern Instruments, United Kingdom). Bacterial and spore cultures were brought to OD600˜0.1 in PBS buffer (pH=7). To evaluate the effect of the ceragenin on zeta potential value, CSA-13 was added at the concentration of 100 μg/mL to the spore suspension, incubated for 15 minutes and transferred to a cuvette. Measurements were conducted at 25° C.
# [9] = test system: B. subtilis spores; assay: Confocal Raman spectroscopy of single spores (CaDPA content); format: cell-based, Bacillus subtilis; settings: 50 μg/mL and 200 μg/mL
# Description: For Raman spectroscopy analyses, spores of B. subtilis were suspended in 100 μL of distilled water and treated with CSA-13 (50 μg/mL and 200 μg/mL) for 1 hour at RT and 70° C. Samples were transferred to polished calcium fluoride (CaF2) optical windows (Crystran, United Kingdom) and dried at 60° C. Raman spectra were recorded using a Renishaw InVia Raman spectrometer equipped with an optical confocal microscope, an air-cooled laser emitting at 532 nm, and an CCD detector thermoelectrically cooled to −70° C. A dry Leica N PLAN EPI (100×, NA 0.85) objective was used. The power of the laser at the sample position was ca. 1.5 mW. A sum of 20 scans with integration time of 20 seconds and a resolution of 0.5 cm^−1 was collected. The spectrometer was calibrated using the Raman scattering line generated by an internal silicon plate. A laser spot (diameter of ca. 760 nm) was focused on a single spore and then the measurement was performed. All spectra were smoothed and baseline corrected. Results from one representative experiment are provided.
# FIGS. 7 and 8 show Raman spectra collected from B. subtilis spores incubated at RT and at 70° C., respectively, with corresponding confocal microscopy images. Panels A1 and A2—control sample, panels B1 and B2—50 μg/mL of CSA-13, panels C1 and C2—200 μg/mL of CSA-13. Asterisks denote CaDPA bands well separated from bands of spore biocomponents. […]
compound,measurement,setting,value
CCCCCCCCNCCC[C@@H](C)[C@H]1CC[C@H]2[C@@H]3[C@H](OCCCN)C[C@@H]4C[C@H](OCCCN)CC[C@]4(C)[C@H]3C[C@H](OCCCN)[C@]12C [CSA-13],effect of elevated temperature on sporicidal activity,[1]; 70° C. versus room temperature,elevated temperature significantly intensifies the activity
same,concentration killing bacterial spores,"[1]; 70° C., incubation 120 and 240 minutes",5 µg/mL
same,concentration sufficient to inhibit the growth of spores,"[1]; 70° C., incubation 15 min (FIG. 4, panel C)",20 µg/mL
same,concentration giving total inhibition of spore growth potential,"[1]; RT, regardless of incubation time (15-240 min) (FIG. 4, panel B)",100 µg/mL
same,change of spore structure in TEM micrographs,[2],disruption of spore membrane architecture
same,metabolic activity of treated spores after exposure to favorable conditions,[3],only a small fraction of spores was able to resume proper metabolic activity
same,effect on spore germination (OD600),[4],strong interference in the germination
same,concentration at which vegetative cells showed no detectable metabolism,[5],20 µg/mL
same,concentration at which all vegetative cells were killed,[6],15 µg/mL
same,rhodamine 6G release compared with vancomycin,[7]; 20 μg/mL of each,significantly higher than that of vancomycin
same,release of rhodamine 6G from spores,"[7]; 20 μg/mL, 10-120 min (FIG. 5, panel B)",resulted in the release of dye
same,affinity for the external layers of spores,[8],high affinity
same,affinity for spores versus vegetative form,"[8]; recorded 15 min (FIG. 6, panel A)",greater affinity for the spores than for the vegetative form of bacteria
same,"percentage of CaDPA negative spores, 70° C. versus room temperature",[9]; 1 hour (FIG. 8),greater compared to sample treated at room temperature
same,number of CaDPA positive spores after treatment,"[9]; 1 hour, versus untreated",significant reduction of the number of CaDPA positive cells
